In patent publication US20110124741A1, “RADIOSENSITIZER COMPOSITIONS COMPRISING SCHISANDRA CHINENSIS(TURCZ.)BAILL AND METHODS FOR USE” (ETEN BIOTECHNOLOGY LTD., CO., priority 2009, published 2011):

What was measured:
[1] = test system: HepG2 cells; assay: Annexin V-FITC/PI staining apoptosis assay by flow cytometry, with 8 Gy radiation; assay type: cell-based, human
From the text: Annexin V is a 35-36 kDa Ca2+ dependent phospholipid-binding protein that has a high affinity for the membrane phospholipid phosphatidylserine (PS), and binds to cells with exposed PS. Since externalization of PS occurs in the earlier stages of apoptosis, Annexin V staining can identify apoptosis at an earlier stage than assays based on nuclear changes such as DNA fragmentation. A vital dye such as propidium iodide (PI) is typically used in conjunction with Annexin V to identify the viability of the cells. For example, cells that are considered viable are Annexin V and PI negative; cells that are in early apoptosis are Annexin V positive and PI negative; and cells that are in late apoptosis or already dead are both Annexin V and PI positive, wherein the membranes of dead and damaged cells are permeable to PI. The Annexin V staining assay was performed by Annexin V-FITC-Kit purchased from Beckman Coulter, Inc (U.S.A). The protocol was conducted according to the manufacturing manuscript.
HepG2 cells were seeded in 6-cm dish (2.5×10^5 cells/dish) for 24 hours of incubation. Various concentration of ES800 (40 or 80 μg/ml) were added into the culture medium, and then incubated for another 24 hours, wherein 0.008% DMSO was added to the control group. The cells were exposed at 8 Gy of radiation (Linear accelerator, Philips SL-18), and incubated for another 48 hours. After collection, the cells were washed by pre-cold PBS and centrifuged at 500×g. The supernatant was removed and the cells were re-suspended with binding buffer. 1 μl Annexin V-FITC solution and 5 μl PI solution were added into the cell suspension and reacted away from light on ice for 15 min. Finally, 400 μl pre-cold binding buffer was added and the samples were analyzed by flow cytometer within 30 min. The percentages of Annexin V^+ and PI^+/− double staining cells were plotted in FIG. 2.
HepG2 cells were seeded in 6-well plate (2.5×10^5 cells/well) for 24 hours of incubation. Various concentrations of ES800 (40 or 80 μg/ml) and Schisandrin B (12 or 24 μg/ml) were added into the culture medium, and then incubated for another 2 hours, wherein control group was added 0.008% DMSO. The cells were exposed at 8 Gy of radiation (Linear accelerator, Philips SL-18), and incubated for another 70 hours. After collection, the cells were washed by pre-cold PBS and centrifuged at 500×g. Following removing the supernatant, the cells were suspended with binding buffer. 1 μl Annexin V-FITC solution and 5 μl PI solution were added into the suspension and the mixture was reacted away from light on ice for 15 min. Finally, 400 μl pre-cold binding buffer was added and the samples were analyzed by flow cytometer within 30 min. The percentages of Annexin V^+ and PI^+/− double staining cells were plotted in FIG. 7.

[2] = test system: HepG2 cells; assay: Western blot of apoptosis-related proteins (Bcl-2, p21, caspase 9 cleaved form, caspase 3 cleaved form); assay type: cell-based, human; conditions: 12 μg/ml in combination with 8 Gy
Protocol: HepG2 cells were seeded in 6-cm dish (2.5×10^5 cells/dish) for 24 hours of incubation. […] The cells were exposed at 8Gy of radiation (Linear accelerator, Philips SL-18), and incubated for another 48 hours. After collection, the cells were washed by PBS for three times, and then centrifuged at 360×g for 5 min. After removing the supernatant, 120 μl CelLytic-M (Sigma) and 1 μl Protease Inhibitor Cocktail (Sigma) were added into the pellet to suspend the cells and then the suspension was incubated at 4° C. for 30 min. The total protein was collected from the supernatant by centrifugation at 27210×g for 10 min.
[…] protein was loaded to run an SDS-PAGE. The gel was then transferred to PVDF and immersed into TTBS solution (2.42 g Tris base/8 g NaCl/0.1% Tween-20/per liter) containing 5% […] milk for blocking. The membrane was reacted with each primary antibody against p21, Bcl-2, caspase 9 (cleaved form), caspase 3 (cleaved form) and β-actin overnight at 4° C. After the reaction, the membrane was washed by TTBS solution three times, and then reacted with appropriate secondary antibody for another 30-min incubation. […] The bands were quantified by GE ImageMaster 2D Platinum Software. […]
The expression level of apoptosis protein in HepG2 was also detected by western blot. […]

## COc1cc2c(c(OC)c1OC)-c1c(cc3c(c1OC)OCO3)CC(C)C(C)C2 (centres unmarked) [Schisandrin B]
[1]; 24 μg/ml in combination with 8 Gy, 2 h pre-incubation, 70 h after radiation
  apoptosis ratio of HepG2, compared with radiation of 8 Gy alone (FIG. 7): significantly higher
[1]; 12 or 24 μg/ml in combination with 8 Gy, 2 h pre-incubation, 70 h after radiation
  apoptosis ratio of HepG2, compared with the control group (FIG. 7): significantly higher
[1]; 12 or 24 μg/ml without exposure of radiation
  effect on the apoptosis of cancer cells (FIG. 7): no effect
[1]; Schisandrin B in combination of radiation therapy
  effect in inhibition of the growth of cancer cells, compared with radiation therapy alone (FIG. 7): enhanced effect
[2]
  expression level of caspase 3 (cleaved form), compared with radiation alone (FIG. 8): significantly higher
